Reference: patent publication US10918644B2, “Chemotherapeutic drug composition” (YEDITEPE UNIVERSITESI, priority 2017, dated 2021)
Several values for one entry are separate records, joined by “and”; a condition that tells them apart may be missing. Equal values may be shown once. Entries after “also recorded” stand apart in the source; their conditions may differ.

Key:
[1] = cited from earlier work; for prolonged progression-free survival: treatment of metastatic RCC
[2] = system: Caki-1 cells; assay: Annexin-V cell death detection assay, Caki-1 cells; format: cell-based; conditions: 1 μM Everolimus and 10 μM ABT-737, or ABT-737 monotherapy; 24, 48 and 72 hours
[3] = system: Caki-1 cells; assay: WST-1 cell viability assay, Caki-1 cells; format: cell-based
Method: (§1) The WST-1 assay was performed to determine cell viability. The working principle of this assay is based on the conversion of the stable tetrazolium salt WST-1 into soluble formazan by viable cells. During conversion of WST-1 to formazan, a color change that is measurable at 450 and 630 nm wavelengths occurs in the cell medium. In other words, the amount of formazan dye is proportional to the number of metabolically active (viable) cells. The color change was evaluated by measuring the absorbance in the ELISA device and the obtained values were analyzed using the Graph Pad Prism 7 database.
(§2) To determine the toxic effect of Everolimus and ABT-737 on cell viability, primary A-498 and metastatic Caki-1 RCC cell lines that are resistant to drug Everolimus were used in this study and the toxic effect was determined by using the WST-1 method.
(§3) Everolimus and ABT-737 drugs were administered to A-498 and Caki-1 cells, which were seeded in 96-well culture plates, for three days to determine the appropriate dose for the combination. The effect of the drugs prepared at three different concentrations (1, 5, or 10 μM) on cell viability was determined using the WST-1 method. […] The amount of drug composition for Caki-1 (10,000 cells/well) metastatic cells was determined as 1 μM Everolimus and 10 μM ABT-737. […]

[4] = mouse, in vivo
Source text: At the end of the experiment, the organs including thymus, heart, stomach, intestine, kidney, spleen, testis, lung, liver, and brain were taken from the animals in each group and were sent for pathological examination. […] At the same time, the metastatic focus in these tissues was also examined.

[5] = system: HEK293 cells; assay: WST-1 cell viability assay on healthy kidney cells (toxicity); format: cell-based, human
Method: as §1
Human embryonic kidney (HEK293) cells were used as a cell model to test whether Everolimus and ABT-737 had any toxic effects on healthy kidney cells. HEK293 cells were treated with the drug composition (1 μM for Everolimus and 5 μM for ABT-737) for 3 days and the toxicity response was determined by measuring cell viability by WST-1 assay for 3 days.

[6] = system: Everolimus-resistant RenCa (erRenCa) cells; assay: In vivo tumor model with erRenCa cells injected into the dorsal area; design: species or system Balb/c mice; conditions: for animals with tumor formation: 2 mg/kg Everolimus and/or 75 mg/kg ABT-737 intraperitoneally every other day from day 4, 11 injections, eight animals per group
Method: Everolimus stock solution was prepared by dissolving 10 mg lyophilized Everolimus in 1.043 ml DMSO (Dimethyl sulfoxide) (9.6 mg/ml) and ABT-737 stock solution was prepared by dissolving 10 mg ABT-737 in 1.229 ml DMSO (8.14 mg/ml). Stock concentration of both drugs was 10 mM. For in vitro conditions, dilutions were made in cell culture medium at concentrations ranging from 1-5 μM from Everolimus stock concentration. For in vivo conditions, the drug Everolimus that will be injected to animals was prepared by diluting the stock concentration in PBS (Phosphate-buffered saline) to a concentration of 2 mg/kg. For in vitro conditions, dilutions were made in cell culture medium at concentrations ranging from 1-10 μM from ABT-737 stock concentration. For in vivo conditions, the drug ABT-737 that will be injected to animals was prepared by diluting the stock concentration in PBS (Phosphate-buffered saline) to a concentration of 75 mg/kg. Prior to injection, the volume of the injected drug is adjusted to 200 μl by addition of PBS (Phosphate-buffered saline). The drugs were injected into the animals separately one minute apart without being mixed.
(§4) The process of tumor development was monitored.
These erRenCa kidney cancer cells were used as a cancer cell line to form a kidney cancer tumor model in animals. For this purpose, cells were subcutaneously injected into the dorsal area of Balb/c mice. […] The experiment was terminated at the end of 11 injections. […] In order to develop resistance to Everolimus, erRenCa cells inactivated their mTOR pathway and began to use the Bcl-2 pathway for their survival. Therefore, cancer cells could only undergo cell death after blocking the anti-apoptotic Bcl-2 survival pathway with the drug ABT-737.

[7] = system: Everolimus-resistant RenCa (erRenCa) cells; assay: WST-1 cell viability assay, Everolimus-resistant RenCa cells; format: cell-based, murine; conditions: Everolimus 1, 5 and 10 μM, at the end of three days
Method: as §1
RenCa cells were made resistant to Everolimus for the use in in vivo experiments. In this regard, RenCa cells were seeded in 96-well culture plates. After 24 hours, the cells were treated with 1 μM Everolimus for 72 hours. At the end of 72 hours, the cells were washed with PBS (Phosphate-buffered saline) and treated with 10 μM Everolimus for an additional 72 hours. Cells that developed resistance to Everolimus were transferred to 6-well culture plates and were grown in an Everolimus-free medium. Cells reaching a density of 90% were transferred to T-75 culture plates and were grown for 2 months in a medium containing 1 μM Everolimus.
as §4

[8] = system: RenCa cells; assay: WST-1 cell viability assay, RenCa cells; format: cell-based, murine; conditions: Everolimus 1, 5 and 10 μM, after 48 hours of treatment
Method: as §1, §4

[9] = system: A-498 cells; assay: WST-1 cell viability assay, A-498 cells; format: cell-based; conditions: Everolimus monotherapy, 1, 5 or 10 μM, three days
Method: as §1, §2, §3

[10] = system: mTOR pathway in A-498 cells; assay: Western Blotting of mTOR pathway proteins, A-498 cells; format: cell-based; conditions: 1 μM Everolimus alone or with 5 μM ABT-737, 24 hours
Method: (§5) A-498 and Caki-1 RCC cells were used to investigate the molecular effect of the Everolimus and ABT-737 drug composition on the mTOR pathway. A-498 cells and Caki-1 cells seeded in 6-well plates were treated for 24 hours with 1 μM Everolimus and 5 μM ABT-737 and 1 μM Everolimus and 10 μM ABT-737, respectively. At the end of 24 hours, proteins were isolated from the cells. These proteins were then used to determine the expression of proteins that play a key role in the mTOR pathway by performing the Western Blotting technique.

[11] = system: mTOR pathway in Caki-1 cells; assay: Western Blotting of mTOR pathway proteins, Caki-1 cells; format: cell-based; conditions: 1 μM Everolimus alone or with 10 μM ABT-737, 24 hours
Method: as §5

[12] = ABT-737 group, 75 mg/kg intraperitoneally every other day
[13] = Everolimus group, 2 mg/kg intraperitoneally every other day, 2 mg/kg

In the case of `CNC(=O)c1cc(Oc2ccc(NC(=O)Nc3ccc(Cl)c(C(F)(F)F)c3)cc2)ccn1` [Sorafenib], the prolonged progression-free survival [1] is given as “up to 5.9 months”.

For `CN(C)CC[C@H](CSc1ccccc1)Nc1ccc(S(=O)(=O)NC(=O)c2ccc(N3CCN(Cc4ccccc4-c4ccc(Cl)cc4)CC3)cc2)cc1[N+](=O)[O-]` [ABT-737], the “apoptosis mediated cell death (Annexin-V)” value [2] was “more significant increase in the cell death compared to the combination”, the “decrease in cell viability” value ([3]; ABT-737 monotherapy, after 72 hours) was 80% and the “toxic effects on the animals (pathological examination of the tissues)” value [4] was “did not show any toxic effects”. For the same compound, the “decrease in the cell viability of healthy kidney cells” value ([5]; 5 μM ABT-737, third day of the treatment) was “did not cause any decrease”, the “animals with tumor formation” value [6] was “three of the eight” and the “Grade (WHO/ISUP, per animal H1-H8)” value [6, 12] was 4. For the same compound, the “Necrosis (per animal H1-H8)” value [6, 12] was “No” and the “Tumor (pathological examination, per animal H1-H8)” value ([6]; ABT-737 group, 75 mg/kg intraperitoneally every other day, 75 mg/kg) was “No tumor; also recorded: Renal cell carcinoma”.

In the case of `CO[C@H]1C[C@@H]2CC[C@@H](C)[C@@](O)(O2)C(=O)C(=O)N2CCCC[C@H]2C(=O)O[C@H]([C@H](C)C[C@@H]2CC[C@@H](OCCO)[C@H](OC)C2)CC(=O)[C@H](C)/C=C(\C)[C@@H](O)[C@@H](OC)C(=O)[C@H](C)C[C@H](C)/C=C/C=C/C=C/1C` [Everolimus], the “change in cell viability” value [7] is listed as “did not cause any change”, the increase of survival ([1]; advanced stage RCC, Phase III clinical trials, after failure of VEGF therapy) is listed as “about 4.9 months” and the prolonged progression-free survival [1] is listed as “up to 4.9 months”. For the same compound, the “effect on cell viability” value [8] was “caused toxic effects”, the “response of cell viability to Everolimus (toxicology results)” value [9] was “resistant” and the “response of cell viability to Everolimus (toxicology results)” value ([3]; Everolimus monotherapy, 1, 5 or 10 μM, three days) was “resistant”. For the same compound, the “S6 protein phosphorylated at serine 240/244 (S6-S240/244P)” value [10] was “decrease”, the “basal p70S6K protein expression” value ([10]; vs control cells) was “decreased” and the “p70S6K protein phosphorylated at threonine 389 (p70S6K-T389P)” value ([10]; vs control cells) was “decrease”. The “autophosphorylation of the mTOR kinase at serine 2448 (mTOR-S2448P)” value ([10]; vs untreated control cells) was “diminished”, the “S6 protein phosphorylated at serine 240/244 (S6-S240/244P)” value [11] was “decrease” and the “basal p70S6K protein expression” value ([11]; vs control cells) was “decreased”. The “p70S6K protein phosphorylated at threonine 389 (p70S6K-T389P)” value ([11]; vs control cells) was “decrease”, the “autophosphorylation of the mTOR kinase at serine 2448 (mTOR-S2448P)” value ([11]; vs untreated control cells) was “diminished” and the “toxic effects on the animals (pathological examination of the tissues)” value [4] was “did not show any toxic effects”. For the same compound, the “cytotoxic effect on healthy kidney cells” value ([5]; 1 μM Everolimus, 24 and 48 hours) was “did not show any cytotoxic effect”, the “decrease in the cell viability compared to untreated control cells” value ([5]; 1 μM Everolimus, 72 hour-treatment) was 50% and the “animals with tumor formation” value [6] was “four of the eight”. For the same compound, the “Grade (WHO/ISUP, per animal H1-H8)” value [6, 13] was 4 (3×) and 2, the “Necrosis (per animal H1-H8)” value [6, 13] was “No (7×) and Yes” and the “Tumor (pathological examination, per animal H1-H8)” value [6, 13] was “Renal cell carcinoma; also recorded: No tumor”.

In the case of `CO[C@H]1C[C@@H]2CC[C@@H](C)[C@@](O)(O2)C(=O)C(=O)N2CCCC[C@H]2C(=O)O[C@H]([C@H](C)C[C@@H]2CC[C@@H](OC(=O)C(C)(CO)CO)[C@H](OC)C2)CC(=O)[C@H](C)/C=C(\C)[C@@H](O)[C@@H](OC)C(=O)[C@H](C)C[C@H](C)/C=C/C=C/C=C/1C` [Temsirolimus], the prolonged progression-free survival [1] is given as “up to 3.8 months”.
